The text below walks through data of patent US7414072B2, “Aryl 5-thio-β-d-glucopyranoside derivatives and therapeutic agents for diabetes containing the same” (Taisho Pharmaceutical Co., Ltd., priority 2002, dated 2008).

Compound `OC[C@H]1S[C@@H](Oc2ccc(Cl)cc2Cc2ccc(Cl)cc2Cl)[C@H](O)[C@@H](O)[C@@H]1O` [Compound 70, 4′-chloro-2′-(2′,4′-dichlorobenzyl)phenyl 5-thio-β-D-glucopyranoside] had a melting point of 172 to 174 °C.
In the case of `Cc1ccc(Sc2ccccc2O[C@@H]2S[C@H](CO)[C@@H](O)[C@H](O)[C@H]2O)cc1` [Compound 38], the melting point lay within 140 to 142 °C.
Under `OC[C@H]1S[C@@H](Oc2ccccc2Cc2ccncc2)[C@H](O)[C@@H](O)[C@@H]1O` [Compound 24] stands 179 to 180 °C.
`OC[C@H]1S[C@@H](Oc2ccc(Cl)cc2Cc2cccc(F)c2)[C@H](O)[C@@H](O)[C@@H]1O` [Compound 61, 4′-chloro-2′-(3′-fluorobenzyl)phenyl 5-thio-β-D-glucopyranoside] came in with a melting point of 182 to 183 °C.
As to `OC[C@H]1S[C@@H](Oc2ccc(Cl)cc2Cc2c(F)c(F)cc(F)c2F)[C@H](O)[C@@H](O)[C@@H]1O` [Compound 66, 4′-chloro-2′-(2′,3′,5′,6′-tetrafluorobenzyl)phenyl 5-thio-β-D-glucopyranoside], the melting point is 204 to 211 °C.
For `OC[C@H]1S[C@@H](Oc2ccc(Cl)cc2Cc2c(F)cccc2Cl)[C@H](O)[C@@H](O)[C@@H]1O` [Compound 59, 2′-(2′-chloro-6′-fluorobenzyl)-4′-chlorophenyl 5-thio-β-D-glucopyranoside], the melting point lay within 183.5 to 185 °C.
Compound `OC[C@H]1S[C@@H](Oc2ccccc2Cc2ccc(-n3cccn3)cc2)[C@H](O)[C@@H](O)[C@@H]1O` [Compound 43, 2′-(4′-pyrazol-1′-ylbenzyl)phenyl 5-thio-β-D-glucopyranoside] displayed a melting point of 208 to 210 °C.
For the compound `CCc1ccc(Cc2cc(C(=O)O)ccc2O[C@@H]2S[C@H](CO)[C@@H](O)[C@H](O)[C@H]2O)cc1` [Compound 16, 4′-carboxy-2′-(4′-ethylbenzyl)phenyl 5-thio-β-D-glucopyranoside], the melting point lay within 219 to 220.5 °C.
Under `O=[N+]([O-])c1ccc(Cc2cc(Cl)ccc2O[C@@H]2S[C@H](CO)[C@@H](O)[C@H](O)[C@H]2O)cc1` [Compound 41, 4′-chloro-2′-(4′-nitrobenzyl)phenyl 5-thio-β-D-glucopyranoside] stands 180 to 182 °C.
The value for `OC[C@H]1S[C@@H](Oc2ccc(Cl)cc2Cc2cccc(OC(F)(F)F)c2)[C@H](O)[C@@H](O)[C@@H]1O` [Compound 69, 4′-chloro-2′-(3′-trifluoromethoxybenzyl)phenyl 5-thio-β-D-glucopyranoside] was 146 to 148 °C; that for `COC(=O)c1ccc(Cc2cc(Cl)ccc2O[C@@H]2S[C@H](CO)[C@@H](O)[C@H](O)[C@H]2O)cc1` [Compound 40, 4′-chloro-2′-(4′-methoxycarbonylbenzyl)phenyl 5-thio-β-D-glucopyranoside] was 74 to 76 °C; that for `OC[C@H]1S[C@@H](Oc2c(Cc3c(F)cccc3Cl)cc(Cl)cc2Cc2c(F)cccc2Cl)[C@H](O)[C@@H](O)[C@@H]1O` [Compound 53] was 112 to 118 °C.
Regarding `CCCCOc1ccc(Cc2cc(Cl)ccc2O[C@@H]2S[C@H](CO)[C@@H](O)[C@H](O)[C@H]2O)cc1` [Compound 45, 2′-(4′-butoxybenzyl)-4′-chlorophenyl 5-thio-β-D-glucopyranoside], the melting point was 166 to 169 °C.
Regarding `O=C(Nc1ccccc1)c1cc2ccccc2cc1O[C@@H]1S[C@H](CO)[C@@H](O)[C@H](O)[C@H]1O` [Compound 92], the melting point is 200 to 202 °C.
The value for `OC[C@H]1S[C@@H](Oc2ccccc2Cc2ccc(C3CC3)cc2)[C@H](O)[C@@H](O)[C@@H]1O` [Compound 90, 2′-(4′-cyclopropylbenzyl)phenyl 5-thio-β-D-glucopyranoside] was 148 to 148.5 °C; that for `OC[C@H]1S[C@@H](Oc2ccccc2Cc2ccc(F)cc2)[C@H](O)[C@@H](O)[C@@H]1O` [Compound 9, 2′-(4′-fluorobenzyl)phenyl 5-thio-β-D-glucopyranoside] was 157 to 158.5 °C.
In turn, `CCc1ccc(Cc2ccc(OCOC)cc2O[C@@H]2S[C@H](CO)[C@@H](O)[C@H](O)[C@H]2O)cc1` [Compound 20, 2′-(4′-ethylbenzyl)-5′-(methoxymethyloxy)phenyl 5-thio-β-D-glucopyranoside] returned a melting point of 175.5 to 180 °C.
On to `CCOc1ccc(Cc2ccccc2O[C@@H]2S[C@H](CO)[C@@H](O)[C@H](O)[C@H]2O)cc1` [Compound 5, 2′-(4′-ethoxybenzyl)phenyl 5-thio-β-D-glucopyranoside], for which the melting point was in the range of 182 to 183.5 °C.
Under `CCc1ccc(Cc2cccc(O[C@@H]3S[C@H](CO)[C@@H](O)[C@H](O)[C@H]3O)c2)cc1` [Compound 49] stands 132 to 134 °C; under `COc1cc(OC)c(Cc2ccccc2O[C@@H]2S[C@H](CO)[C@@H](O)[C@H](O)[C@H]2O)c(OC)c1` [Compound 65, 2′-(2′,4′,6′-trimethoxybenzyl)phenyl 5-thio-β-D-glucopyranoside], 100 to 105 °C.
`OC[C@H]1S[C@@H](Oc2ccc(Cl)cc2Cc2cccc3ccccc23)[C@H](O)[C@@H](O)[C@@H]1O` [Compound 68]: the melting point is 170 to 175 °C.
On to `OC[C@H]1S[C@@H](Oc2ccc(Cl)cc2Cc2ccccc2F)[C@H](O)[C@@H](O)[C@@H]1O` [Compound 44, 4′-chloro-2′-(2′-fluorobenzyl)phenyl 5-thio-β-D-glucopyranoside], for which the melting point lay in the range of 170 to 173 °C.
Turning to `OC[C@H]1S[C@@H](Oc2ccc(Cl)cc2Cc2cc(F)cc(C(F)(F)F)c2)[C@H](O)[C@@H](O)[C@@H]1O` [Compound 76, 4′-chloro-2′-(3′-fluoro-5′-trifluoromethylbenzyl)phenyl 5-thio-β-D-glucopyranoside], the melting point lay within 126 to 129 °C.
`OC[C@H]1S[C@@H](Oc2ccc(Cl)cc2Cc2ccccc2CCc2ccccc2)[C@H](O)[C@@H](O)[C@@H]1O` [Compound 78]: the melting point lay in the range of 128 to 130 °C.
On to `Nc1ccc(Cc2cc(Cl)ccc2O[C@@H]2S[C@H](CO)[C@@H](O)[C@H](O)[C@H]2O)cc1` [Compound 42, 2′-(4′-aminobenzyl)-4′-chlorophenyl 5-thio-β-D-glucopyranoside], for which the melting point lay within 206 to 208 °C.
Compound `NC(=O)c1ccc(Cc2ccccc2O[C@@H]2S[C@H](CO)[C@@H](O)[C@H](O)[C@H]2O)cc1` [Compound 85, 2′-(4′-carbamoylbenzyl)phenyl 5-thio-β-D-glucopyranoside] came in with a melting point of 215.5 to 216 °C.
In turn, `CN(C)C(=O)c1ccc(Cc2ccccc2O[C@@H]2S[C@H](CO)[C@@H](O)[C@H](O)[C@H]2O)cc1` [Compound 86, 2′-(4′-N,N-dimethylaminocarbonylbenzyl)phenyl 5-thio-β-D-glucopyranoside] displayed a melting point of 193.5 to 194 °C.
Under `OC[C@H]1S[C@@H](Oc2ccc(Cl)cc2Cc2ccc3ccccc3c2)[C@H](O)[C@@H](O)[C@@H]1O` [Compound 71] stands 192 to 194 °C; under `CCc1ccc(Cc2c(O)cccc2O[C@@H]2S[C@H](CO)[C@@H](O)[C@H](O)[C@H]2O)cc1` [Compound 14, 2′-(4′-ethylbenzyl)-3′-hydroxyphenyl 5-thio-β-D-glucopyranoside], 238 to 242.5 °C.

For orientation: melting point means the temperature of the solid-liquid transition.
